In patent publication US9040553B2, “Phenoxyisobutyric acid compounds and method of synthesis” (CELL VIABLE CORPORATION, priority 2010, dated 2015):

Biological target: BSA (Bos taurus, UniProt P02769)
Experiment: BSA glycation inhibition (glucose incubation, SDS gel/PVDF blot, periodic acid-Schiff staining)
Type: biochemical
Conditions: BSA incubated with glucose and compound at 37° C. for 5 weeks; periodic acid-Schiff base staining of blot
Protocol: Compound No. 1 was tested for glycation activity according to the following protocol:
BSA was incubated in the presence of glucose and Compound No. 1 at 37° C. for 5 weeks. Aliquots of 2 μg protein were run on an SDS gel and transferred to PVDF membrane—the same procedure as for a western blot. The membrane was then processed to identify glycoprotein content by the periodic acid-Schiff base method. The positive reaction is pink, and glycation also shifts the molecular weight so the band migrates more slowly down the gel (higher position on the blot). […] Amimoguanadine was used as a control Reduced staining is an indication of glycation inhibition.

Sequence of BSA (P02769 25-607): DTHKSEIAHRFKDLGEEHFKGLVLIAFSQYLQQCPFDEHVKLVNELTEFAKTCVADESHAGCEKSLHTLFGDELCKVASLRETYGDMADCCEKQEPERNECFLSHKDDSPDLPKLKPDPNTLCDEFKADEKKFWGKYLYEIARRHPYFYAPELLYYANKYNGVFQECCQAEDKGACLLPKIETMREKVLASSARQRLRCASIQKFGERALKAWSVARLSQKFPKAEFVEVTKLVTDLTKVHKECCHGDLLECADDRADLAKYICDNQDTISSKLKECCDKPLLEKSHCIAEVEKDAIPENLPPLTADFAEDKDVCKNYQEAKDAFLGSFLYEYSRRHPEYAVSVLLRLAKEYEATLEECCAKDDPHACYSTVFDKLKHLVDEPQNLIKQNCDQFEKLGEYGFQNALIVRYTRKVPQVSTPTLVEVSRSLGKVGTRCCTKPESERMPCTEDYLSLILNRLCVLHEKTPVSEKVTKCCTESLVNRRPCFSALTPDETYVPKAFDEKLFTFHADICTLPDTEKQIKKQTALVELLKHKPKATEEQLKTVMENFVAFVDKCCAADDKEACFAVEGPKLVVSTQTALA

**Q.** How did the “glycation inhibition (reduced glycoprotein staining)” value turn out when “3,3′-dichloro-1,1′-diphenyl-4,4′-diureidophenoxyisobutyric acid [Compound No. 1]” was run?
**A.** Its value is “found to inhibit glycation”.
